Measured values: ChEMBL document CHEMBL4828706, “Mechanistic Insights into the Leishmanicidal and Bactericidal Activities of Batroxicidin, a Cathelicidin-Related Peptide from a South American Viper (Bothrops atrox)” (J Nat Prod, 2021)
Values after ≈ are worked out from the molar mass of the structure shown. Active and inactive are the calls of the source. No cut-off for these calls is given here. Where a SMILES comes first, the peptide text is derived from it.

Assays:
[1] = tested on: Staphylococcus aureus; experiment: Antibacterial activity against Staphylococcus aureus ATCC 29213 assessed as inhibition of bacterial growth by CLSI protocol based microdilution assay; assay type: functional
[2] = tested on: Enterococcus faecalis; experiment: Antibacterial activity against Enterococcus faecalis ATCC 29212 assessed as inhibition of bacterial growth by CLSI protocol based microdilution assay; assay type: functional
[3] = tested on: Escherichia coli; experiment: Antibacterial activity against Escherichia coli ATCC 25922 assessed as inhibition of bacterial growth by CLSI protocol based microdilution assay; assay type: functional
[4] = tested on: Pseudomonas aeruginosa; experiment: Antibacterial activity against Pseudomonas aeruginosa ATCC 27853 assessed as inhibition of bacterial growth by CLSI protocol based microdilution assay; assay type: functional
[5] = tested on: Staphylococcus aureus; experiment: Antibacterial activity against methicillin-resistant Staphylococcus aureus assessed as inhibition of bacterial growth by CLSI protocol based microdilution assay; assay type: functional
[6] = tested on: Pseudomonas aeruginosa; experiment: Antibacterial activity against multidrug-resistant Pseudomonas aeruginosa assessed as inhibition of bacterial growth by CLSI protocol based microdilution assay; assay type: functional
[7] = tested on: Escherichia coli; experiment: Antibacterial activity against multidrug- resistant Escherichia coli assessed as inhibition of bacterial growth by CLSI protocol based microdilution assay; assay type: functional
[8] = tested on: Escherichia coli; experiment: Antibacterial activity against Escherichia coli ATCC 2101123 assessed as inhibition of bacterial growth incubated for 18 hrs by CLSI protocol based microdilution assay; assay type: functional
[9] = tested on: Escherichia coli; experiment: Antibacterial activity against Escherichia coli ATCC 1812446 assessed as inhibition of bacterial growth incubated for 18 hrs by CLSI protocol based microdilution assay; assay type: functional
[10] = tested on: Cell membrane; experiment: Induction of cell membrane permeabilization in Escherichia coli ATCC 25922 assessed as cell morphology distortion by measuring circular depressions along the bacterial surface at 0.47 uM by Atomic force microscopy analysis; assay type: subcellular
[11] = tested on: Cell membrane; experiment: Induction of cell membrane permeabilization in Escherichia coli ATCC 25922 assessed as cell morphology distortion by measuring alterations in cell shape at 0.47 uM by Atomic force microscopy analysis; assay type: subcellular
[12] = tested on: Leishmania amazonensis; experiment: Antileishmanial activity against Leishmania amazonensis (MHOM/BR/73/M2269) promastigotes assessed as inhibition of parasite growth measured after 24 hrs by MTT assay; assay type: functional, organism-based; conditions: MHOM/BR/73/M2269, 24 h
[13] = tested on: Leishmania amazonensis; experiment: Antileishmanial activity in Leishmania amazonensis amastigotes infected in Balb/c mouse peritoneal macrophages assessed as reduction in infection index measured after 24 hrs by Giemsa staining based assay; assay type: functional, organism-based; conditions: Peritoneal macrophage
[14] = tested on: Leishmania amazonensis; experiment: Antileishmanial activity in Leishmania amazonensis amastigotes infected in Balb/c mouse peritoneal macrophages assessed as average parasitic charge per macrophage at 0.70 uM measured after 24 hrs by Giemsa staining based assay; assay type: functional; conditions: dose 0.7 µM
[15] = tested on: Lipid bilayer; experiment: Induction of membrane destabilization in mammalian cell membrane mimic POPC:Chol (70:30) large unilamellar vesicle assessed as carboxyfluorescein leakage at MIC for Escherichia coli measured for 60 mins by fluorescence spectroscopy analysis
[16] = tested on: Lipid bilayer; experiment: Induction of membrane destabilization in bacterial cell membrane mimic POPC:POPG (80:20) large unilamellar vesicle assessed as carboxyfluorescein leakage at MIC for Escherichia coli measured for 60 mins by fluorescence spectroscopy analysis
[17] = Cytotoxicity against mouse macrophage J774 cells assessed as cell growth inhibition measured after 24 hrs by Prestoblue dye based fluorescence analysis
[18] = Cytotoxicity against human HaCat cells assessed as cell growth inhibition measured after 48 hrs by MTT assay; assay type: cell-based
[19] = tested on: Lipid bilayer; experiment: Binding affinity with Biomimetic membrane dodecylphosphocholine micelles by circular dichroism analysis
[20] = tested on: Lipid bilayer; experiment: Binding affinity with Biomimetic membrane dodecylphosphocholine micelles by NMR analysis
[21] = tested on: Cell membrane; experiment: Induction of cell membrane permeabilization in Escherichia coli ATCC 25922 assessed as cell morphology distortion by measuring modifications on bacillary structure at 0.23 uM by Atomic force microscopy analysis; assay type: subcellular
[22] = tested on: Cell membrane; experiment: Disruption of membrane integrity in Leishmania amazonensis promastigotes at EC50 to 2 x EC50 measured after 24 hrs by SYTOX green staining based fluorescence assay; assay type: subcellular
[23] = tested on: Cell membrane; experiment: Disruption of membrane integrity in Leishmania amazonensis promastigotes assessed as cell morphology deformation at 59.81 uM by Atomic force microscopy analysis; assay type: subcellular
[24] = tested on: Cell membrane; experiment: Disruption of membrane integrity in Leishmania amazonensis promastigotes assessed as cell morphology deformation by measuring wrinkled patterns at 59.81 uM by Atomic force microscopy analysis; assay type: subcellular
[25] = tested on: Cell membrane; experiment: Induction of cell membrane permeabilization in Escherichia coli ATCC 25922 assessed as cell morphology distortion by measuring modifications on bacillary structure at 0.12 uM by Atomic force microscopy analysis; assay type: subcellular
[26] = tested on: Cell membrane; experiment: Disruption of membrane integrity in Leishmania amazonensis promastigotes assessed as cell morphology deformation at 61.98 uM by Atomic force microscopy analysis; assay type: subcellular
[27] = tested on: Cell membrane; experiment: Disruption of membrane integrity in Leishmania amazonensis promastigotes assessed as cell morphology deformation by measuring wrinkled patterns at 61.98 uM by Atomic force microscopy analysis; assay type: subcellular
[28] = tested on: Escherichia coli; experiment: Antibacterial activity against Escherichia coli ATCC 25922 assessed as inhibition of bacterial growth incubated for 18 hrs by CLSI protocol based microdilution assay; assay type: functional
[29] = tested on: Pseudomonas aeruginosa; experiment: Antibacterial activity against Pseudomonas aeruginosa ATCC 27853 assessed as inhibition of bacterial growth incubated for 18 hrs by CLSI protocol based microdilution assay; assay type: functional
[30] = tested on: Leishmania amazonensis; experiment: Antileishmanial activity in Leishmania amazonensis amastigotes infected in Balb/c mouse peritoneal macrophages assessed as average parasitic charge per macrophage at 1 uM measured after 24 hrs by Giemsa staining based assay; assay type: functional

CC[C@H](C)[C@H](NC(=O)[C@@H](NC(=O)[C@H](CCCNC(=N)N)NC(=O)[C@@H]1CCCN1C(=O)[C@H](CCCCN)NC(=O)[C@H](CCCNC(=N)N)NC(=O)[C@H](Cc1ccccc1)NC(=O)[C@H](Cc1ccccc1)NC(=O)[C@H](CCCCN)NC(=O)[C@H](CCCCN)NC(=O)[C@@H](NC(=O)[C@H](CCCNC(=N)N)NC(=O)[C@H](CCCCN)NC(=O)[C@H](CCCCN)NC(=O)[C@@H](NC(=O)[C@H](CO)NC(=O)[C@H](CC(N)=O)NC(=O)[C@H](CCCCN)NC(=O)[C@H](CC(C)C)NC(=O)[C@H](CCCCN)NC(=O)[C@H](CCCCN)NC(=O)[C@H](Cc1ccccc1)NC(=O)[C@H](Cc1ccccc1)NC(=O)[C@H](CCCCN)NC(=O)[C@H](CCCCN)NC(=O)[C@H](Cc1ccccc1)NC(=O)[C@H](CCCNC(=N)N)NC(=O)[C@@H](N)CCCCN)C(C)C)C(C)C)C(C)C)C(=O)NCC(=O)N[C@H](C(=O)N[C@H](C(=O)N[C@@H](Cc1ccccc1)C(=O)N1CCC[C@H]1C(=O)N[C@@H](Cc1ccccc1)C(N)=O)[C@@H](C)O)C(C)C (H-KRFKKFFKKLKNSVKKRVKKFFRKPRVIGVTFPF-NH2)
MIC [1]: 7.51 µM (≈ 32 µg/mL) | MIC [2]: 7.51 µM (≈ 32 µg/mL) | MIC [3]: 0.48 µM (≈ 2.04 µg/mL) | MIC [4]: 0.94 µM (≈ 4 µg/mL) | MIC [5]: 7.51 µM (≈ 32 µg/mL) | MIC [6]: 0.94 µM (≈ 4 µg/mL) | MIC [7]: 0.94 µM (≈ 4 µg/mL) | MIC [8]: 8 µM (≈ 34.1 µg/mL) | MIC [9]: 8 µM (≈ 34.1 µg/mL) | Activity [10]: Active | Activity [11]: inactive | EC50 [12]: 4.9 µM | Activity [13]: Dose-Dependent Effect | Activity [14]: 1.96 | Activity [15]: 35% | Activity [16]: 50% | CC50 at 24 h [17]: 1.6 µM | CC50 at 48 h [18]: 21.7 µM | Activity [19]: Active | Activity [20]: Active

CC[C@H](C)[C@H](NC(=O)[C@@H](NC(=O)[C@H](CCCNC(=N)N)NC(=O)[C@@H]1CCCN1C(=O)[C@H](CCCCN)NC(=O)[C@H](CCCNC(=N)N)NC(=O)[C@H](Cc1ccccc1)NC(=O)[C@H](Cc1ccccc1)NC(=O)[C@H](Cc1ccccc1)NC(=O)[C@H](CCCCN)NC(=O)[C@@H](NC(=O)[C@H](CCCNC(=N)N)NC(=O)[C@H](CCCCN)NC(=O)[C@H](CCCCN)NC(=O)[C@@H](NC(=O)[C@H](CO)NC(=O)[C@H](CC(N)=O)NC(=O)[C@H](CCCCN)NC(=O)[C@H](CC(C)C)NC(=O)[C@H](CCCCN)NC(=O)[C@H](CCCCN)NC(=O)[C@H](Cc1ccccc1)NC(=O)[C@H](Cc1ccccc1)NC(=O)[C@H](CCCCN)NC(=O)[C@H](CCCCN)NC(=O)[C@H](Cc1ccccc1)NC(=O)[C@H](CCCNC(=N)N)NC(=O)[C@@H](N)CCCCN)C(C)C)C(C)C)C(C)C)C(=O)NCC(=O)N[C@H](C(=O)N[C@H](C(=O)N[C@@H](Cc1ccccc1)C(=O)N1CCC[C@H]1C(=O)N[C@@H](Cc1ccccc1)C(N)=O)[C@@H](C)O)C(C)C (H-KRFKKFFKKLKNSVKKRVKFFFRKPRVIGVTFPF-NH2)
MIC [1]: 3.74 µM (≈ 16 µg/mL) | MIC [2]: 7.48 µM (≈ 32 µg/mL) | MIC [3]: 0.93 µM (≈ 3.98 µg/mL) | MIC [4]: 1.87 µM (≈ 8 µg/mL) | MIC [5]: 1.87 µM (≈ 8 µg/mL) | MIC [6]: 4 µM (≈ 17.1 µg/mL) | MIC [7]: 0.94 µM (≈ 4.02 µg/mL) | Activity [21]: Active | EC50 [12]: 6.74 µM | Activity [22]: Active | Activity [23]: Active | Activity [24]: Active | Activity [13]: Dose-Dependent Effect | Activity [15]: 60% | Activity [16]: 60% | CC50 at 24 h [17]: 2.14 µM | CC50 at 48 h [18]: 29.4 µM | Activity [19]: Active | Activity [20]: Active

CC[C@H](C)[C@H](NC(=O)[C@@H](NC(=O)[C@H](CCCNC(=N)N)NC(=O)[C@@H]1CCCN1C(=O)[C@H](CCCCN)NC(=O)[C@H](CCCNC(=N)N)NC(=O)[C@H](Cc1ccccc1)NC(=O)[C@H](Cc1ccccc1)NC(=O)[C@H](Cc1ccccc1)NC(=O)[C@H](CCCCN)NC(=O)[C@@H](NC(=O)[C@H](CCCNC(=N)N)NC(=O)[C@H](CCCCN)NC(=O)[C@H](CCCCN)NC(=O)[C@@H](NC(=O)[C@H](CO)NC(=O)[C@H](CC(N)=O)NC(=O)[C@H](CCCCN)NC(=O)[C@H](CC(C)C)NC(=O)[C@H](CCCCN)NC(=O)[C@H](CCCCN)NC(=O)[C@H](Cc1ccccc1)NC(=O)[C@H](Cc1ccccc1)NC(=O)[C@H](CCCCN)NC(=O)[C@H](CCCCN)NC(=O)[C@H](Cc1ccccc1)NC(=O)[C@H](CCCNC(=N)N)NC(=O)[C@@H](N)CCCCN)C(C)C)C(C)C)C(C)C)C(=O)NCC(=O)N[C@H](C(=O)N[C@H](C(=O)N[C@@H](Cc1ccccc1)C(=O)N1CCC[C@H]1C(N)=O)[C@@H](C)O)C(C)C (H-KRFKKFFKKLKNSVKKRVKFFFRKPRVIGVTFP-NH2)
MIC [1]: 3.87 µM (≈ 16 µg/mL) | MIC [2]: 7.75 µM (≈ 32 µg/mL) | MIC [3]: 0.48 µM (≈ 1.98 µg/mL) | MIC [4]: 0.97 µM (≈ 4.01 µg/mL) | MIC [5]: 1.94 µM (≈ 8.01 µg/mL) | MIC [6]: 0.94 µM (≈ 3.88 µg/mL) | MIC [7]: 0.48 µM (≈ 1.98 µg/mL) | Activity [25]: Active | EC50 [12]: 8.86 µM | Activity [26]: Active | Activity [27]: Active | Activity [13]: Dose-Dependent Effect | Activity [15]: 30% | Activity [16]: 35% | CC50 at 24 h [17]: 3.51 µM | CC50 at 48 h [18]: 34.1 µM | Activity [19]: Active | Activity [20]: Active

C[C@H]1C(=O)O[C@@H]2CCN3CC=C(COC(=O)[C@](C)(O)[C@]1(C)O)[C@H]23 [MONOCROTALINE]
MIC [28]: 0.78 µM (≈ 0.254 µg/mL) | MIC [29]: 1.56 µM (≈ 0.508 µg/mL) | MIC [8]: 4 µM (≈ 1.3 µg/mL) | MIC [9]: 16 µM (≈ 5.21 µg/mL)

C[C@@H]1[C@H](O)[C@@H](C)/C=C/C=C/C=C/C=C/C=C/C=C/C=C/[C@H](O[C@@H]2O[C@H](C)[C@@H](O)[C@H](N)[C@@H]2O)C[C@@H]2O[C@](O)(C[C@@H](O)C[C@@H](O)[C@H](O)CC[C@@H](O)C[C@@H](O)CC(=O)O[C@H]1C)C[C@H](O)[C@H]2C(=O)O [AMPHOTERICIN B]
EC50 [12]: 0.024 µM | Ratio [30]: 5.07
